± gives the uncertainty stated by the source.
Experiment: xn = mol fraction of the nth substance listed
Conditions: 298.15 K, 101 kPa

Compound: OC1OC[C@@H](O)[C@H](O)[C@H]1O (stereo partly specified) + O + CCCCCCCCCC[n+]1ccn(C)c1.[Br-]
- viscosity (x1 = 0.0001909, x3 = 0.001813): 0.998 ± 0.015 mPa·s
- viscosity (x1 = 0.0001999, x3 = 0.003572): 1.112 ± 0.015 mPa·s
- viscosity (x1 = 0.0002133, x3 = 0.005429): 1.247 ± 0.016 mPa·s
- viscosity (x1 = 0.0002286, x3 = 0.007128): 1.391 ± 0.017 mPa·s
- viscosity (x1 = 0.0003836, x3 = 0.001812): 1.001 ± 0.015 mPa·s
- viscosity (x1 = 0.0003893, x3 = 0.005428): 1.254 ± 0.016 mPa·s
- viscosity (x1 = 0.0003978, x3 = 0.003572): 1.116 ± 0.015 mPa·s
- viscosity (x1 = 0.000437, x3 = 0.007127): 1.398 ± 0.017 mPa·s
- viscosity (x1 = 0.0005688, x3 = 0.001812): 1.005 ± 0.015 mPa·s
- viscosity (x1 = 0.0005861, x3 = 0.003571): 1.123 ± 0.015 mPa·s
- viscosity (x1 = 0.0005867, x3 = 0.005427): 1.262 ± 0.016 mPa·s
- viscosity (x1 = 0.0006133, x3 = 0.007125): 1.404 ± 0.017 mPa·s
- viscosity (x1 = 0.0007539, x3 = 0.001812): 1.012 ± 0.015 mPa·s
- viscosity (x1 = 0.0007591, x3 = 0.00357): 1.129 ± 0.015 mPa·s
- viscosity (x1 = 0.0007841, x3 = 0.005426): 1.269 ± 0.016 mPa·s
- viscosity (x1 = 0.0008175, x3 = 0.007124): 1.409 ± 0.017 mPa·s
- viscosity (x1 = 0.0009408, x3 = 0.001811): 1.018 ± 0.015 mPa·s
- viscosity (x1 = 0.0009549, x3 = 0.00357): 1.133 ± 0.015 mPa·s
- viscosity (x1 = 0.0009897, x3 = 0.007123): 1.418 ± 0.017 mPa·s
- viscosity (x1 = 0.000999, x3 = 0.005425): 1.276 ± 0.016 mPa·s
- viscosity (x1 = 0.001114, x3 = 0.003569): 1.136 ± 0.015 mPa·s
- viscosity (x1 = 0.001117, x3 = 0.001811): 1.021 ± 0.015 mPa·s
- viscosity (x1 = 0.001181, x3 = 0.005424): 1.28 ± 0.016 mPa·s
- viscosity (x1 = 0.001198, x3 = 0.007121): 1.427 ± 0.017 mPa·s
- viscosity (x1 = 0.00132, x3 = 0.001811): 1.023 ± 0.015 mPa·s
- viscosity (x1 = 0.001321, x3 = 0.003568): 1.143 ± 0.015 mPa·s
- viscosity (x1 = 0.00137, x3 = 0.005423): 1.286 ± 0.016 mPa·s
- viscosity (x1 = 0.001406, x3 = 0.00712): 1.433 ± 0.017 mPa·s
- viscosity (x1 = 0.00149, x3 = 0.00181): 1.03 ± 0.015 mPa·s
- viscosity (x1 = 0.001525, x3 = 0.003568): 1.149 ± 0.015 mPa·s
- viscosity (x1 = 0.001559, x3 = 0.005422): 1.292 ± 0.016 mPa·s
- viscosity (x1 = 0.001622, x3 = 0.007118): 1.441 ± 0.017 mPa·s
- viscosity (x1 = 0.001679, x3 = 0.00181): 1.037 ± 0.015 mPa·s
- viscosity (x1 = 0.001728, x3 = 0.003567): 1.158 ± 0.015 mPa·s
- viscosity (x1 = 0.001768, x3 = 0.005421): 1.3 ± 0.016 mPa·s
- viscosity (x1 = 0.001812, x3 = 0.007117): 1.449 ± 0.017 mPa·s

Compound: OC1OC[C@@H](O)[C@H](O)[C@H]1O (stereo partly specified) + O + CCCCCCCCn1cc[n+](C)c1.[Br-]
- viscosity (x1 = 0.0001923, x3 = 0.001831): 0.966 ± 0.014 mPa·s
- viscosity (x1 = 0.0001932, x3 = 0.003598): 1.027 ± 0.015 mPa·s
- viscosity (x1 = 0.0002045, x3 = 0.00713): 1.178 ± 0.015 mPa·s
- viscosity (x1 = 0.0002136, x3 = 0.005442): 1.104 ± 0.015 mPa·s
- viscosity (x1 = 0.0003697, x3 = 0.00183): 0.97 ± 0.014 mPa·s
- viscosity (x1 = 0.0003826, x3 = 0.003597): 1.03 ± 0.015 mPa·s
- viscosity (x1 = 0.0004154, x3 = 0.005441): 1.11 ± 0.015 mPa·s
- viscosity (x1 = 0.00056, x3 = 0.00183): 0.976 ± 0.014 mPa·s
- viscosity (x1 = 0.0005832, x3 = 0.003596): 1.035 ± 0.015 mPa·s
- viscosity (x1 = 0.000592, x3 = 0.00544): 1.115 ± 0.015 mPa·s
- viscosity (x1 = 0.0006052, x3 = 0.007127): 1.189 ± 0.016 mPa·s
- viscosity (x1 = 0.0007465, x3 = 0.00183): 0.981 ± 0.014 mPa·s
- viscosity (x1 = 0.0007705, x3 = 0.003595): 1.04 ± 0.015 mPa·s
- viscosity (x1 = 0.0007917, x3 = 0.005439): 1.121 ± 0.015 mPa·s
- viscosity (x1 = 0.0008153, x3 = 0.007126): 1.195 ± 0.016 mPa·s
- viscosity (x1 = 0.0009407, x3 = 0.003595): 1.044 ± 0.015 mPa·s
- viscosity (x1 = 0.0009495, x3 = 0.001829): 0.985 ± 0.015 mPa·s
- viscosity (x1 = 0.0009701, x3 = 0.005438): 1.127 ± 0.015 mPa·s
- viscosity (x1 = 0.0009957, x3 = 0.007124): 1.202 ± 0.016 mPa·s
- viscosity (x1 = 0.001112, x3 = 0.001829): 0.989 ± 0.015 mPa·s
- viscosity (x1 = 0.001145, x3 = 0.003594): 1.051 ± 0.015 mPa·s
- viscosity (x1 = 0.00115, x3 = 0.005437): 1.13 ± 0.015 mPa·s
- viscosity (x1 = 0.001216, x3 = 0.007123): 1.207 ± 0.016 mPa·s
- viscosity (x1 = 0.001289, x3 = 0.001829): 0.993 ± 0.015 mPa·s
- viscosity (x1 = 0.001332, x3 = 0.003593): 1.054 ± 0.015 mPa·s
- viscosity (x1 = 0.00134, x3 = 0.005436): 1.135 ± 0.015 mPa·s
- viscosity (x1 = 0.00141, x3 = 0.007121): 1.213 ± 0.016 mPa·s
- viscosity (x1 = 0.001459, x3 = 0.001828): 0.996 ± 0.015 mPa·s
- viscosity (x1 = 0.00151, x3 = 0.003593): 1.059 ± 0.015 mPa·s
- viscosity (x1 = 0.00153, x3 = 0.005435): 1.14 ± 0.015 mPa·s
- viscosity (x1 = 0.001602, x3 = 0.00712): 1.219 ± 0.016 mPa·s
- viscosity (x1 = 0.001647, x3 = 0.001828): 1 ± 0.015 mPa·s
- viscosity (x1 = 0.001708, x3 = 0.003592): 1.065 ± 0.015 mPa·s
- viscosity (x1 = 0.001741, x3 = 0.005433): 1.147 ± 0.015 mPa·s
- viscosity (x1 = 0.001813, x3 = 0.007119): 1.224 ± 0.016 mPa·s
